# Reference: US12071425B2 (Genentech, Inc., priority 2018, dated 2024)
# pIC50: −log10 of the molar value. Counter-ions that a name gives are not always drawn.
# Target: kinase domain of IRE1 alpha (His-tagged kinase dead construct KR, AA G547-L977, D688N) (Homo sapiens (Human), UniProt O75460, D688N)
# Assay: IRE1α TR-FRET competition binding assay
# Conditions: competition with Kinase Tracer 236, 0.1 μM; one hour at room temperature
# Summary of the method: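 Sf9-expressed kinase-dead KR construct (0.006 μM final) pre-incubated 1 h at 4° C with Eu anti-His antibody (0.002 μM) in HEPES pH 7.5/MgCl2/Brij/DTT buffer; Kinase Tracer 236 (ATP-competitive probe, 0.1 μM final) added with compound. 1 h at room temperature; tracer displacement read by TR-FRET (665/615 nm).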
# Chain of kinase domain of IRE1 alpha (His-tagged kinase dead construct KR, AA G547-L977, D688N) (O75460 547-977 D688N): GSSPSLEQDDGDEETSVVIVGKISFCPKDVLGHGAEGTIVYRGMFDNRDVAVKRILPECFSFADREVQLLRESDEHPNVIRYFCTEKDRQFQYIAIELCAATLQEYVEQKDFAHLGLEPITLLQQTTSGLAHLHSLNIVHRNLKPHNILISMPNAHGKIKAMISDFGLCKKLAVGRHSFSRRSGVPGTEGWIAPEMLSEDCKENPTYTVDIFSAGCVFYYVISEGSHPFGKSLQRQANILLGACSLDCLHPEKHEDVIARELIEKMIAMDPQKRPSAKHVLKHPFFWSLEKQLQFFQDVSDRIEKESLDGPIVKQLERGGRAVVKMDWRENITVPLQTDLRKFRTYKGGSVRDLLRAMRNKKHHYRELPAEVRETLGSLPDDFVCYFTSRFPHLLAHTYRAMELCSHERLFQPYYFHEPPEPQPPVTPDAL
row,pIC50,SMILES
1,8.96,"CCCS(=O)(=O)Nc1c(F)cc(Oc2ncccc2-c2ccnc(N[C@H]3CC[C@H](N(C)C)CC3)n2)c(F)c1F [Compound 309, N-(4-((3-(2-(((1r,4r)-4-(Dimethylamino)cyclohexyl)amino)pyrimidin-4-yl)pyridin-2-yl)oxy)-2,3,6-trifluorophenyl)propane-1-sulfonamide]"
2,9.49,"CN(C)[C@H]1CC[C@H](Nc2nccc(-c3cccnc3Oc3cc(F)c(NS(=O)(=O)CCC(C)(F)F)c(F)c3F)n2)CC1 [Compound 310, N-(4-((3-(2-(((1r,4r)-4-(Dimethylamino)cyclohexyl)amino)pyrimidin-4-yl)pyridin-2-yl)oxy)-2,3,6-trifluorophenyl)-3,3-difluorobutane-1-sulfonamide]"
3,9.54,"Cc1ccc(CS(=O)(=O)Nc2cc(F)c(Oc3ncccc3-c3ccnc(N[C@@H]4CNC[C@@](C)(F)C4)n3)c(C)c2F)cc1 [Compound 311, N-(2,5-Difluoro-4-((3-(2-(((3S,5S)-5-fluoro-5-methylpiperidin-3-yl)amino)pyrimidin-4-yl)pyridin-2-yl)oxy)-3-methylphenyl)-1-(p-tolyl)methanesulfonamide]"
4,9.85,"CS(=O)(=O)c1ccc(CS(=O)(=O)Nc2c(F)cc(Oc3ncccc3-c3ccnc(N[C@@H]4CNC[C@@H](F)C4)n3)c(F)c2F)cc1 [Compound 312, 1-(4-(Methylsulfonyl)phenyl)-N-(2,3,6-trifluoro-4-((3-(2-(((3S,5S)-5-fluoropiperidin-3-yl)amino)pyrimidin-4-yl)pyridin-2-yl)oxy)phenyl)methanesulfonamide]"
5,9.64,"O=S(=O)(Cc1ccc(C2CC2)cc1)Nc1c(F)cc(Oc2ncccc2-c2ccnc(N[C@@H]3CNC[C@@H](F)C3)n2)c(F)c1F [Compound 315, 1-(4-Cyclopropylphenyl)-N-(2,3,6-trifluoro-4-((3-(2-(((3S,5S)-5-fluoropiperidin-3-yl)amino)pyrimidin-4-yl)pyridin-2-yl)oxy)phenyl)methanesulfonamide]"
6,7.46,"O=S(=O)(Cc1ccc(F)cc1F)Nc1c(F)cc(Oc2ncccc2-c2ccnc(N[C@@H]3CNC[C@H](CF)C3)n2)c(F)c1F [Compound 320, 1-(2,4-Difluorophenyl)-N-(2,3,6-trifluoro-4-((3-(2-(((3S,5R)-5-(fluoromethyl)piperidin-3-yl)amino)pyrimidin-4-yl)pyridin-2-yl)oxy)phenyl)methanesulfonamide]"
7,9.19,"N#Cc1ccc(CS(=O)(=O)Nc2c(F)cc(Oc3ncccc3-c3ccnc(N[C@@H]4CNC[C@H](CF)C4)n3)c(F)c2F)cc1 [Compound 321, 1-(4-Cyanophenyl)-N-(2,3,6-trifluoro-4-((3-(2-(((3S,5R)-5-(fluoromethyl)piperidin-3-yl)amino)pyrimidin-4-yl)pyridin-2-yl)oxy)phenyl)methanesulfonamide]"
8,9.38,"Cc1cc(F)ccc1CS(=O)(=O)Nc1c(F)cc(Oc2ncccc2-c2ccnc(N[C@@H]3CNC[C@@H](F)C3)n2)c(F)c1F [Compound 322, 1-(4-Fluoro-2-methylphenyl)-N-(2,3,6-trifluoro-4-((3-(2-(((3S,5S)-5-fluoropiperidin-3-yl)amino)pyrimidin-4-yl)pyridin-2-yl)oxy)phenyl)methanesulfonamide]"

# The next lines start with the molecule.
row,SMILES,pIC50
1,"Cc1cc(Oc2ncccc2-c2ccnc(N[C@@H]3CNC[C@@](C)(F)C3)n2)c(F)c(F)c1NS(=O)(=O)Cc1ccccc1 [Compound 279, N-(2,3-Difluoro-4-((3-(2-(((3S,5S)-5-fluoro-5-methylpiperidin-3-yl)amino)pyrimidin-4-yl)pyridin-2-yl)oxy)-6-methylphenyl)-1-phenylmethanesulfonamide]",9.64
2,"Cc1cc(Oc2ncccc2-c2ccnc(N[C@@H]3CNC[C@@H](F)C3)n2)c(F)c(F)c1NS(=O)(=O)Cc1ccccc1 [Compound 280, N-(2,3-Difluoro-4-((3-(2-(((3S,5S)-5-fluoropiperidin-3-yl)amino)pyrimidin-4-yl)pyridin-2-yl)oxy)-6-methylphenyl)-1-phenylmethanesulfonamide]",9.51
3,"C[C@@]1(F)CNC[C@@H](Nc2nccc(-c3cccnc3Oc3cc(F)c(NS(=O)(=O)Cc4ccc(F)cc4F)c(F)c3F)n2)C1 [Compound 281, 1-(2,4-Difluorophenyl)-N-(2,3,6-trifluoro-4-((3-(2-(((3S,5S)-5-fluoro-5-methylpiperidin-3-yl)amino)pyrimidin-4-yl)pyridin-2-yl)oxy)phenyl)methanesulfonamide]",9.47
4,"C[C@@]1(F)CNC[C@@H](Nc2nccc(-c3cccnc3Oc3cc(F)c(NS(=O)(=O)Cc4c(F)cccc4F)c(F)c3F)n2)C1 [Compound 282, 1-(2,6-Difluorophenyl)-N-(2,3,6-trifluoro-4-((3-(2-(((3S,5S)-5-fluoro-5-methylpiperidin-3-yl)amino)pyrimidin-4-yl)pyridin-2-yl)oxy)phenyl)methanesulfonamide]",9.57
5,"Cc1cc(NS(=O)(=O)Cc2c(F)cccc2F)c(F)c(F)c1Oc1ncccc1-c1ccnc(N[C@@H]2CNC[C@@H](F)C2)n1 [Compound 283, N-(2,3-Difluoro-4-((3-(2-(((3S,5S)-5-fluoropiperidin-3-yl)amino)pyrimidin-4-yl)pyridin-2-yl)oxy)-5-methylphenyl)-1-(2,6-difluorophenyl)methanesulfonamide]",9.39
6,"Cc1ccc(CS(=O)(=O)Nc2c(F)cc(Oc3ncccc3-c3ccnc(N[C@@H]4CNC[C@@](C)(F)C4)n3)c(F)c2F)cc1 [Compound 284, 1-p-Tolyl-N-(2,3,6-trifluoro-4-((3-(2-(((3S,5S)-5-fluoro-5-methylpiperidin-3-yl)amino)pyrimidin-4-yl)pyridin-2-yl)oxy)phenyl)methanesulfonamide]",9.82
7,"CN1CCN(Cc2ccc(NC(=O)Nc3ccc(Oc4ncccc4-c4ccnc(N[C@@H]5CNC[C@@H](F)C5)n4)cc3)cc2C(F)(F)F)CC1 [Compound 285, 1-(4-((3-(2-(((3S,5S)-5-Fluoropiperidin-3-yl)amino)pyrimidin-4-yl)pyridin-2-yl)oxy)phenyl)-3-(4-((4-methylpiperazin-1-yl)methyl)-3-(trifluoromethyl)phenyl)urea hydrochloride]",8.05
8,"CN1CCN(Cc2ccc(NC(=O)Nc3cccc(Oc4ncccc4-c4ccnc(N[C@@H]5CNC[C@@H](F)C5)n4)c3)cc2C(F)(F)F)CC1 [Compound 286, 1-(3-((3-(2-(((3S,5S)-5-Fluoropiperidin-3-yl)amino)pyrimidin-4-yl)pyridin-2-yl)oxy)phenyl)-3-(4-((4-methylpiperazin-1-yl)methyl)-3-(trifluoromethyl)phenyl)urea hydrochloride]",6.59
9,"Cc1ccccc1CS(=O)(=O)Nc1c(F)cc(Oc2ncccc2-c2ccnc(N[C@@H]3CNC[C@@](C)(F)C3)n2)c(F)c1F [Compound 290, 1-o-Tolyl-N-(2,3,6-trifluoro-4-((3-(2-(((3S,5S)-5-fluoro-5-methylpiperidin-3-yl)amino)pyrimidin-4-yl)pyridin-2-yl)oxy)phenyl)methanesulfonamide]",9.40
10,"COc1cccc(CS(=O)(=O)Nc2c(F)cc(Oc3ncccc3-c3ccnc(N[C@@H]4CNC[C@@](C)(F)C4)n3)c(F)c2F)c1 [Compound 291, 1-(3-Methoxyphenyl)-N-(2,3,6-trifluoro-4-((3-(2-(((3S,5S)-5-fluoro-5-methylpiperidin-3-yl)amino)pyrimidin-4-yl)pyridin-2-yl)oxy)phenyl)methanesulfonamide]",9.55
11,"Cc1c(Oc2ncccc2-c2ccnc(N[C@@H]3CNC[C@@](C)(F)C3)n2)cc(F)c(NS(=O)(=O)Cc2ccccc2)c1F [Compound 292, N-(2,6-Difluoro-4-((3-(2-(((3S,5S)-5-fluoro-5-methylpiperidin-3-yl)amino)pyrimidin-4-yl)pyridin-2-yl)oxy)-3-methylphenyl)-1-phenylmethanesulfonamide]",9.48
12,"Cc1c(Oc2ncccc2-c2ccnc(N[C@@H]3CNC[C@@H](F)C3)n2)cc(F)c(NS(=O)(=O)Cc2c(F)cccc2F)c1F [Compound 293, N-(2,6-Difluoro-4-((3-(2-(((3S,5S)-5-fluoropiperidin-3-yl)amino)pyrimidin-4-yl)pyridin-2-yl)oxy)-3-methylphenyl)-1-(2,6-difluorophenyl)methanesulfonamide]",9.39
13,"COc1cc(Oc2ncccc2-c2ccnc(N[C@@H]3CNC[C@@H](F)C3)n2)cc(F)c1NS(=O)(=O)Cc1ccccc1 [Compound 296, N-(2-Fluoro-4-((3-(2-(((3S,5S)-5-fluoropiperidin-3-yl)amino)pyrimidin-4-yl)pyridin-2-yl)oxy)-6-methoxyphenyl)-1-phenylmethanesulfonamide]",7.85
14,"Cc1ccc(CS(=O)(=O)Nc2cc(C)c(Oc3ncccc3-c3ccnc(N[C@@H]4CNC[C@@](C)(F)C4)n3)c(F)c2F)cc1 [Compound 297, N-(2,3-Difluoro-4-((3-(2-(((3S,5S)-5-fluoro-5-methylpiperidin-3-yl)amino)pyrimidin-4-yl)pyridin-2-yl)oxy)-5-methylphenyl)-1-(p-tolyl)methanesulfonamide]",9.55
15,"COc1ccc(CS(=O)(=O)Nc2c(F)cc(Oc3ncccc3-c3ccnc(N[C@@H]4CNC[C@@](C)(F)C4)n3)c(F)c2F)cc1 [Compound 304, 1-(4-Methoxyphenyl)-N-(2,3,6-trifluoro-4-((3-(2-(((3S,5S)-5-fluoro-5-methylpiperidin-3-yl)amino)pyrimidin-4-yl)pyridin-2-yl)oxy)phenyl)methanesulfonamide]",9.64
16,"Cc1ccc(CS(=O)(=O)Nc2c(C)cc(Oc3ncccc3-c3ccnc(N[C@@H]4CNC[C@@](C)(F)C4)n3)c(F)c2F)cc1 [Compound 305, N-(2,3-Difluoro-4-((3-(2-(((3S,5S)-5-fluoro-5-methylpiperidin-3-yl)amino)pyrimidin-4-yl)pyridin-2-yl)oxy)-6-methylphenyl)-1-(p-tolyl)methanesulfonamide]",9.68
